# Measured values: article PMC10033663, “Acute pharmacological profile of 2C-B-Fly-NBOMe in male Wistar rats—pharmacokinetics, effects on behaviour and thermoregulation” (Frontiers in Pharmacology, 2023)
# “Also recorded” adds a separate entry of the source.
# Columns and labels:
# male Wistar rats [1] = assay: Prepulse inhibition (PPI) of acoustic startle response (ASR); format: in vivo
# Procedure: The effect of 2C-B-Fly-NBOMe on sensorimotor gating was evaluated by a PPI of ASR test. Two identical startle chambers (SR-LAB, San Diego Instruments, California) were used, each containing a sound-proof, evenly lit and ventilated enclosure with a plexiglass stabilimeter (8.7 cm inner diameter), a piezoelectric accelerometer for detecting amplitudes of the ASR, and a high-frequency loudspeaker producing acoustic stimuli. Amplitudes of the ASR were digitized for subsequent analysis. The experimental design was based on our previous studies ([Štefková et al., 2017]; [Šíchová et al., 2018]). Two days before the experiment, the animals were habituated to the startle chambers with a background white noise (75 dB) for 5 min, followed by six presentations of pulse-alone stimuli (125 dB, 40 ms) with pseudorandomized inter-stimulus intervals. […]
# Habituation was calculated by the percentage reduction in the ASR from the initial six baseline trials to the final six trials. PPI was calculated as [100 - (mean response for the prepulse - pulse trial/startle response for the single pulse trials) × 100]. […]
# Locomotor activity in OFT (mean trajectory length across 5 min blocks) was evaluated using a 2 × 4 × 6 mixed factorial ANOVA with temporal testing onset (15 or 60 min) and drug treatment (2C-B-Fly-NBOMe 0.2, 1, or 5 mg/kg or ctrl) as between-subjects factors, and time blocks (6 × 5 min intervals) as a within-subjects factor. Spatial distribution of animal movement in OFT (thigmotaxis and T center) and PPI parameters (habituation, ASR and % of PPI) were each analysed using a 2 × 4 factorial ANOVA with temporal testing onset (15 or 60 min) and drug treatment (2C-B-Fly-NBOMe 0.2, 1, or 5 mg/kg or ctrl) as between-subjects factors.
# male Wistar rats [2] = assay: Thermoregulation (rectal temperature); format: in vivo; settings: 5 mg/kg s. c.
# Procedure: For the assessment of rectal temperature changes, rats were housed individually or in groups of five per cage. They were treated with 2C-B-Fly-NBOMe (5 mg/kg) or ctrl solution s. c. at 9:00 h. During the measurements, each rat was briefly immobilized in a plexiglass tube and then returned to its home cage. In total, 14 measurements were performed: […] for setting the baseline temperature, and then 4 subsequent 30 min measurements (09:30–11:00 h) and 6 hourly measurements (12:00–17:00 h).
# Data from thermoregulatory experiments were analysed using 2 × 2 × 14 mixed factorial design with drug treatment (2C-B-Fly-NBOMe at 5 mg/kg or ctrl) and home cage conditions (individually and group-housed animals) as between-subjects factors and time (14 measurements) as a within-subjects factor. The baseline temperatures of animals were compared in the same manner.
# 5-HT2A receptor [3] = test system: 5-HT2A receptor; design: method as in Ettrup et al., 2011; settings: GF-62 cells; among the examined NBOMes; ref Ettrup et al., 2011; cited from earlier work
# 5-HT2A receptor [4] = test system: 5-HT2A receptor; design: method as in Ettrup et al., 2011; settings: among the examined NBOMes; ref Ettrup et al., 2011; cited from earlier work
# [5] = PET; ref Ettrup et al., 2011; cited from earlier work
smiles,measurement,setting,value
COc1ccccc1CNCCc1c2c(c(Br)c3c1OCC3)OCC2 [2C-B-Fly-NBOMe],percentage of PPI,"male Wistar rats [1]; 0.2, 1 and 5 mg/kg s. c., ANOVA treatment factor",not by treatment
same,Habituation of ASR,"male Wistar rats [1]; 0.2, 1 and 5 mg/kg s. c., p < 0.05",significantly affected by drug treatment
same,ASR versus ctrl,"male Wistar rats [1]; all doses (0.2, 1, 5 mg/kg s. c.), 15 and 60 min onset, p < 0.001",strongly disrupted; also recorded: significantly diminished ASR; also recorded: strongly attenuates ASR
same,trend of hypothermic reaction in group-housed animals,male Wistar rats [2]; animals housed in groups,not in animals housed in groups
same,hypothermic trend in individually housed animals,"male Wistar rats [2]; individually housed, first 90 min after application",the statistical difference was not significant
same,effect of the treatment on body temperature (ANOVA),male Wistar rats [2]; p < 0.05,significant effect of the treatment
same,binding affinity to 5-HT2A receptor,5-HT2A receptor [3],highest binding affinity
same,intrinsic activity,5-HT2A receptor [4],the lowest
same,cortical uptake,[5],highest cortical uptake among the examined NBOMes
same,penetration of brain tissue,[5],readily penetrated the brain tissue
